Measured values published in patent publication US20120053076A1, “METHODS FOR IDENTIFICATION” (Cambridge Enterprise Limited, priority 2009, published 2012).
Read-outs that look alike come from different tables or passages of the source. No end group written: not given here.

Experiments:
sstr2 = target: T1, sstr2 (Homo sapiens, UniProt P30874); assay: Equilibrium binding of [3H]-BN83250 to THP-1 cells
T1 construct: with 1×10^6 THP-1 cells in Gey's Balanced Salt Solution; endogenous in cells; host or cells: THP-1 cells (whole cells, 4° C.)
Protocol: Methods: [^3H]-BN83250 was synthesesized from (S,E)-3-(2′,2′-dimethyldodec-4′-enoylamino)-caprolactam by catalytic hydrogenation using tritium gas over a palladium catalyst (CRB Ltd, Cleveland, UK), yielding the tritiated product at a concentration of […] in ethanol with a specific activity of 220 Ci/mmol. The (S,E)-3-(2′,2′-dimethyldodec-4′-enoylamino)-caprolactam was prepared as follows: (S,S)-3-amino-caprolactam hydro-pyrrolidine-5-carboxylate (10 mmol) and Na2CO3 (30 mmol) in water (30 ml) were added to a solution of 2,2-dimethyl-dodec-4-enoyl chloride (10 mmol) in dichloromethane (30 ml) at ambient temperature and the reaction was stirred for 12 hours. The organic layer was then separated and the aqueous phase was extracted with additional dichloromethane (2×25 ml). The combined organic layers were dried over Na2CO3 and reduced in vacuo. The residue was purified by silica column chromatography (1:1 EtOAc:hexanes to EtOAc) to give […]-3-(2′,2′-dimethyl-dodec-4′-enoyl)amino-caprolactam as a colourless oil (2.12 g, 63%). The radiolabelled compound was stored in the dark at 4° C. until required. Prior to use the specific activity was adjusted by addition of unlabelled BN83250.
For the analysis of binding, individual reactions were set up (in triplicate for each condition), with 1×10^6 THP-1 cells in Gey's Balanced Salt Solution, 10 nM [^3H]-BN83250 (at 50 Ci/mmol) and various concentrations of (S)-3(2′2′-dimethylpropionoylamino)-tetrahydropyridin-2-one (10 pM to 10 μM). Excess (100 μM) unlabelled BN83250 was used to determine the level of non-specific binding. After 2 hours at 4° C. (conditions previously shown to achieve equilibrium binding, and which prevent uptake of the radioligand that would result in an over-estimate of binding) excess label was washed away by centrifugation (3 washes with 5 ml of Gey's Balanced Salt Solution) and the bound radioactivity was determined by scintillation counting of the solubilised cell pellet.

5HT2a = conditions: rodents; cited from earlier work
fetal rat pituicytes = assay: Rat pituicyte GH suppression assay; assay type: cell-based; conditions: Table 3
From the text: (§1) Two different assays for “classical” sstr2 functions were adopted: (1) cultured foetal rat pituitary cells secreted growth hormone which is inhibited by sstr2 agonists in a dose-dependent fashion and (2) selected glucose-sensitive sub-clones of the human Panc-1 cell line secrete insulin which is inhibited by sstr2 agonists in a dose-dependent fashion.
Methods: Cultures of fetal rat pituicytes were established exactly as previously described (Murray et al. (2004) J. Clin. Endocrinol. Metab. 89:3027-32) by enzymatic dispersion. After 48 hrs in low glucose DMEM plus 10% FCS, cells in 48 well plates (5×10^4 cells per well) were washed for 4 hrs in serum-free DMEM and then incubated with test agents at various concentrations for a further 24 hrs in serum-free DMEM. At the end of this period, the conditioned medium was harvested, any cell debris removed by centrifugation and assayed for GH using a commercially available ELISA (Linco; cat# EZRMGH-45K) in accordance with the manufacturer's instructions.
(§2) Results were reported as the mean±SD, expressed as the fold change from cells in the presence of vehicle only.

Panc-2H4 cells = assay: Human Panc-2H4 insulin suppression assay; assay type: cell-based
From the text: as §1
Glucose-sensitive sub-clones of the human Panc-1, a cell line derived from a pleiomorphic epithelioid carcinoma of the exocrine pancreas, were obtained essentially as described by Hamil et al. (2008) Biomed. Sci. Instrum. 44:441-6. Briefly, Panc-1 cells were subcultured in 24 well plates, and the medium was supplemented with an additional 5% glucose. […] The resulting sub-lines were then tested for glucose sensitivity by preparing wells of a 96-well plate (5×10^4 cells per well) which were then exposed to cultured medium containing a range of glucose concentrations (low glucose DMEM, DMEM, DMEM+1% glucose, DMEM+2.5% glucose and DMEM+5% glucose). After 24 hrs incubation, the conditioned medium was collected and assayed for insulin secretion by ELISA (Linco; cat# EZHI-14K) in accordance with the manufacturer's instructions.
Further 96 well plates were prepared using Panc-2H4 (5×10^4 cells per well) in DMEM. After 24 hrs, the medium was switched to DMEM+5% glucose containing various test agents at various concentrations (triplicate wells per condition). After a further 24 hrs, the conditioned medium was harvested and the concentration of insulin was determined by ELISA as described above.
as §2

THP-1 cells = assay: MCP-1 induced THP-1 cell migration, Transwell assay; assay type: cell-based, human; conditions: for Max effect (maximum inhibition): Table 2, highest dose tested (1-10 μM); for Maximal inhibition of leukocyte migration: maximal / very high doses, Example 6
Protocol: Leukocyte migration was measured using the 96-well format micro Transwell® assay system from Neuroprobe (Gaithersburg, Md., USA). In principle, this assay consists of two chambers separated by a porous membrane. The chemoattractant is placed in the lower compartment and the cells are placed in the upper compartment.
The method was performed essentially as previously described (Reckless & Grainger (1999) Biochem. J. 340:803-11).
First, the cell suspension to be placed in the upper compartment was prepared. The THP-1 cells were pelleted by centrifugation (770×g; 4 mins) and washed with Geys Balanced Salt Solution with 1 mg/ml BSA (GBSS+BSA). This wash was then repeated, and the cells re-pelleted before being resuspended in a small volume of GBSS+BSA for counting, for example using a standard haemocytometer.
The volume of GBSS+BSA was then adjusted depending on the number of cells present so that the cells were at final density of 4.45×10^6 cells per ml of GBSS+BSA. This ensured that there were 100,000 THP-1 cells in each 25 μl of the solution to be placed in the upper chamber of the plate.
The suspension of THP-1 cells at 4.45×10^6 cells/ml was divided into three pots. […] To the second pot, the BSCI was added at the same concentration as in the first pot, but additionally the sstr2 antagonist was also added (for example BIM 23454 [Tulipano et al. (2002) 143:1218-24] or BIM 23627 were added at 66 nM final concentration from a stock solution in GBSS). To the third pot, GBSS+BSA plus vehicle as appropriate was added so that the volumes in three pots are equal, acting as a control.
Next, the chemoattractant solution to be placed in the lower compartment was prepared. MCP-1 was diluted in GBSS+BSA to give a final concentration of 25 ng/ml (after all additions). Note that, as recommended by Frow et al (Med. Res. Rev. 24:276-98) this is the concentration of MCP-1 which induces maximal migration in this system. This solution was divided into three pots, as for the cell suspension. To one pot, the BSCI was added to the same final concentration as was added to the cell suspension, in the second pot the BSCI and the sstr2 antagonist were both added at the same concentration as previously added to the cell suspension, while to the remaining pot GBSS+BSA plus vehicle as appropriate was added so that the volumes in the three pots were equal.
Once the chemoattractant solutions for the lower wells and cell solutions for the upper chambers were prepared, the migration chamber was assembled. 29 μl of the appropriate chemoattractant solution was placed into the lower well of the chamber. Assays were performed with at least triplicate determinations of each condition. Once all the lower chambers were filled, the porous membrane was applied to the chamber in accordance with the manufacturer's instructions. Finally, 25 μl of the appropriate cell solution was applied to each upper chamber. A plastic lid was placed over the entire apparatus to prevent evaporation.
The assembled chamber was incubated at 37° C., 5% CO2, for 2 hours.
At the end of the incubation, the liquid cell suspension was gently removed from the upper chamber, 20 μl of ice-cold 20 mM EDTA in PBS was added to the upper chamber, and the apparatus was incubated at 4° C. for 15 mins. This procedure caused any cells adhering to the underside of the membrane to fall into the lower chamber.
After this incubation the filter was carefully flushed with GBSS+BSA to wash off the EDTA, and then the filter was removed.
The number of cells migrated into the lower chamber under each condition can then be determined by a number of methods, including direct counting, labelling with fluorescent or radioactive markers or through the use of a vital dye. Typically, we utilised the vital dye MTT.

platelets = assay: ADP-mediated platelet activation/aggregation; assay type: cell-based
Jurkat T cells = assay: SDF-1α induced migration of parental Jurkat T cells; assay type: cell-based, human
Protocol: Results: The level of the SDF-1α, receptor CXCR4 was similar on Jurkat-D3B and the parental Jurkat T cell line. Furthermore, the Jurkat-D3B cells responded to SDF-1α in a Transwell® chemotaxis assay (see Example 1 for the methodology employed) over a similar concentration range to the parental cell line.
Jurkat T cells and Jurkat-D3B cells were induced to migrate in response to 100 ng/ml SDF-1α (R&D systems; the concentration of SDF-1α which induced maximal cell migration in both lines). The BSCI BN83250 was then added at various concentrations between 0 nM and 1000 nM (each in triplicate) to both the upper and lower compartments (at the same concentration in each compartment, so as not to create a gradient of BSCI concentration). DMSO (1% final concentration) was used as the vehicle, and was present in all wells at equal concentration.

T1 sequence (P30874 whole entry): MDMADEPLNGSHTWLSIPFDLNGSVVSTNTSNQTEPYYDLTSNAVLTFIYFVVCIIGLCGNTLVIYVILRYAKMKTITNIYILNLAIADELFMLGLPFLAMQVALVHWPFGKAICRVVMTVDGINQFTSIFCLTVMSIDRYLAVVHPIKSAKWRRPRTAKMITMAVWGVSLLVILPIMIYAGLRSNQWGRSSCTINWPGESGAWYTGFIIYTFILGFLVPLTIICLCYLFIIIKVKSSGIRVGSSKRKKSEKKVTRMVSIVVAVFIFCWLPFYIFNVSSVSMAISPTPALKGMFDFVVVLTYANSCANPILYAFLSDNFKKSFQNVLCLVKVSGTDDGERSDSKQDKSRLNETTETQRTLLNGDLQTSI

CC1(C(=O)N[C@H]2CCCCNC2=O)CCCCC1 [(S)-3-(1′-methylcyclohexyl-1′-carbonylamino)-caprolactam]
Competition with BN83250 binding to sstr2, in words (sstr2): compete with BN83250 binding to sstr2 to a similar extent

C[C@@H](N)Cc1c2ccoc2c(Br)c2ccoc12 [Bromo-DragonFLY]
Head twitching by classical 5HT2a agonists (5HT2a): induce this classical effect

C[C@@H](c1c[nH]c2ccccc12)[C@@H](NC(=O)N1CCC(n2c(=O)[nH]c3ccccc32)CC1)C(=O)NC[C@@H]1CCC[C@H](CN)C1 [L-779,976]
EC50 (fetal rat pituicytes; read-out: Rat pituicyte GH suppression assay ED50): 2.9 nM | Rat pituicyte GH suppression assay Max effect (fetal rat pituicytes; suppression compared to vehicle): 55% | EC50 (Panc-2H4 cells; Table 3, read-out: Human Panc-2H4 insulin suppression assay ED50): 17 nM | Human Panc-2H4 insulin suppression assay Max effect (Panc-2H4 cells; Table 3, suppression compared to vehicle): 40% | Panc-2H4 insulin suppression assay (“classical” target) Max Effect (Panc-2H4 cells; Table 4): 40% | EC50 (Panc-2H4 cells; Table 4, 0.01 nM to 1,000 nM, DMSO 1%, read-out: Panc-2H4 insulin suppression assay (“classical” target) ED50): 17 nM | Panc-2H4 insulin suppression assay (“classical” target) Max Effect (Panc-2H4 cells; Table 5): 40% | EC50 (Panc-2H4 cells; Table 5, read-out: Panc-2H4 insulin suppression assay (“classical” target) ED50): 17 nM | Human chemokine-induced THP-1 migration assay Max effect (THP-1 cells; Table 3): 65% | Chemokine-induced THP-1 cell migration assay (“BSCI” target) Max Effect (THP-1 cells; Table 4): 65% | Chemokine-induced THP-1 cell migration assay (“BSCI” target) Max Effect (THP-1 cells; Table 5): 65%

CCN(CC)C(=O)[C@@H]1C=C2c3cccc4[nH]cc(c34)C[C@H]2N(C)C1 [LSD]
Head twitching by classical 5HT2a agonists (5HT2a): induce this classical effect

[3H]C(CCCCCCC)C([3H])CC(C)(C)C(=O)N[C@H]1CCCCNC1=O (stereo partly drawn) [[^3H]-BN83250, 4′,5′-^3[H] (S)-3-(2′,2′-dimethyldodecanoyl)amino-caprolactam]
Binding sites per cell (sstr2; THP-1 cells): 100,000 to 200,000 sites per cell | Kd (sstr2; THP-1 cells, 2 hours at 4° C., read-out: Affinity (Scatchard analysis)): ~80 nM

Clc1cccc(Cl)c1N=C1NCCN1 [clonidine]
Effect on ADP-mediated platelet activation/aggregation (platelets): significant potentiate ADP-mediated platelet aggregation

CC(C)C[C@H]1C(=O)N2CCC[C@H]2[C@]2(O)O[C@](NC(=O)[C@@H]3C[C@@H]4c5cccc6[nH]cc(c56)C[C@H]4N(C)C3)(C(C)C)C(=O)N12 [dihydroergocryptine]
Effect on ADP-mediated platelet activation/aggregation (platelets): significant potentiate ADP-mediated platelet aggregation

COc1cc(CCN)cc(OC)c1OC [mescaline]
Head twitching by classical 5HT2a agonists (5HT2a): induce this classical effect

CN(C)CCc1c[nH]c2cccc(O)c12 [psilocin]
Head twitching by classical 5HT2a agonists (5HT2a): induce this classical effect

COC(=O)[C@@H]1[C@H]2C[C@H]3c4[nH]c5ccccc5c4CCN3C[C@@H]2CC[C@@H]1O [yohimbine]
Inhibition of SDF-1α induced migration of Jurkat T cells, in words (Jurkat T cells): neither agent inhibits | Effect on ADP-mediated platelet activation/aggregation (platelets): significant potentiate ADP-mediated platelet aggregation

Cortistatin: more recently described somatostatin analog (DRMPCRNFFWKTFSSCK; ends and bridges not checked; cysteine pairing not given here; UniProt O00230 89-105, looked up)
Max effect (maximum inhibition) (THP-1 cells): 40-60% | Maximal inhibition of leukocyte migration (THP-1 cells): ~50%

Sst-28: alternatively processed sst28 natural ligand
Max effect (maximum inhibition) (THP-1 cells): 40-60% | Maximal inhibition of leukocyte migration (THP-1 cells): 40-60%
